# Measurements reported in US8674113B2, “Compounds” (Boehringer Ingelheim International GmbH, priority 2010, dated 2014).
# Target: mPGES-1 in A549 cells (Homo sapiens (Human), UniProt O14684)
# Assay: A549 cell-based assay (PGE2 formation, 50% human serum)
# Settings: IL-1β 5 ng/ml, 10 nM arachidonic acid, 20-24 h, read-out: mPGES-1 inhibitory effect IC50 in the cell assay
# Method: Although the enzymatic assay is a high throughput assay the disadvantage is that it uses a recombinant protein which is not in its natural environment. Accordingly a cellular assay was established in which a cell line of human origin (A549) expressing the mPGES-1 protein was used. In addition in order to mimic the situation in humans in which compounds can be bound to plasma proteins 50% human serum is added in the assay.
# A549 cells (ATCC: CCL-185) are grown to about 90% confluence in F-12K Nutrient Mixture (Kaighn's Mod. Gibco) containing 10% FBS in a humified incubator at 37° C. and 5% CO2. Cells were detached using Trypsin-EDTA. A549 cells were seeded in a 384-well collagene plate at a density of 7000 cells/well (50 μl) in F-12 medium containing 1% Penicillin-Streptomycin and 50% human serum. The cells were allowed to attach for 3-4 h. After that the cells were incubated for 20-24 h in F-12k medium supplemented with 50% human serum, 1% Penicillin-Streptomycin and containing IL-1β at a final concentration of 5 ng/ml as well as 10 nM arachidonic acid in the presence of a vehicle or a test compound. The total volume is 100 μl.
# Concentrations of PGE2 in the cell free medium (10 μl) were measured using a commercially available HTRF kit from Cisbio (as described above). The PGE2 formation in the absence of test compound was taken as 100%.
# IC50 values were derived from at 6-8 point titrations using conventional software.
# Chain of mPGES-1 in A549 cells (O14684 whole entry): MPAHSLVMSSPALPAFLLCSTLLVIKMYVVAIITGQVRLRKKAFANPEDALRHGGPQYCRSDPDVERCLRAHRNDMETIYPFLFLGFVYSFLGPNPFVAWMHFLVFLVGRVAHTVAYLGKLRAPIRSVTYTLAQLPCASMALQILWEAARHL
row,SMILES,IC50
1,Cc1cc(C)nc(C(=O)NCc2ccc(Cl)c(Nc3nc4cc(C(=O)N[C@H]5CC[C@H](C(F)(F)F)CC5)c(N5CC6CC6C5)cc4n3C)c2Cl)c1 (some centres unmarked) [Example 202],57 nM
2,CNc1cc(C(=O)NCc2ccc(Cl)c(Nc3nc4cc(C(=O)N[C@H]5CC[C@H](C(F)(F)F)CC5)c(N5CC6CC6C5)cc4n3C)c2Cl)ccn1 (some centres unmarked) [Example 203],46 nM
3,COc1cccc(C(=O)NCc2ccc(Cl)c(Nc3nc4cc(C(=O)N[C@H]5CC[C@H](C(F)(F)F)CC5)c(N5CC6CC6C5)cc4n3C)c2Cl)n1 (some centres unmarked) [Example 204],49 nM
4,Cn1c(Nc2c(Cl)ccc(CNC(=O)c3cccc(CO)n3)c2Cl)nc2cc(C(=O)N[C@H]3CC[C@H](C(F)(F)F)CC3)c(N3CC4CC4C3)cc21 (some centres unmarked) [Example 206],42 nM
5,Cn1c(Nc2c(Cl)ccc(CNC(=O)c3cccc(C#N)n3)c2Cl)nc2cc(C(=O)N[C@H]3CC[C@H](C(F)(F)F)CC3)c(N3CC4CC4C3)cc21 (some centres unmarked) [Example 208],21 nM
6,Cn1c(Nc2c(Cl)ccc(CNC(=O)c3cc(C#N)ccn3)c2Cl)nc2cc(C(=O)N[C@H]3CC[C@H](C(F)(F)F)CC3)c(N3CC4CC4C3)cc21 (some centres unmarked) [Example 209],6.5 nM
7,CCn1c(C(=O)NCc2ccc(Cl)c(Nc3nc4cc(C(=O)N[C@H]5CC[C@H](C(F)(F)F)CC5)c(N5CC6CC6C5)cc4n3C)c2Cl)cccc1=O (some centres unmarked) [Example 210],8 nM
8,COc1ncccc1C(=O)NCc1ccc(Cl)c(Nc2nc3cc(C(=O)N[C@H]4CC[C@H](C(F)(F)F)CC4)c(N4CC5CC5C4)cc3n2C)c1Cl (some centres unmarked) [Example 211],106 nM
9,Cn1c(Nc2c(Cl)ccc(CNC(=O)c3ccc(C#N)nc3)c2Cl)nc2cc(C(=O)N[C@H]3CC[C@H](C(F)(F)F)CC3)c(N3CC4CC4C3)cc21 (some centres unmarked) [Example 212],1.7 nM
10,CNc1cncc(C(=O)NCc2ccc(Cl)c(Nc3nc4cc(C(=O)N[C@H]5CC[C@H](C(F)(F)F)CC5)c(N5CC6CC6C5)cc4n3C)c2Cl)n1 (some centres unmarked) [Example 214],113 nM
11,Cn1c(Nc2c(Cl)ccc(CNC(=O)c3ncn[nH]3)c2Cl)nc2cc(C(=O)N[C@H]3CC[C@H](C(F)(F)F)CC3)c(N3CC4CC4C3)cc21 (some centres unmarked) [Example 215],> 100 nM
12,Cn1ccnc1C(=O)NCc1ccc(Cl)c(Nc2nc3cc(C(=O)N[C@H]4CC[C@H](C(F)(F)F)CC4)c(N4CC5CC5C4)cc3n2C)c1Cl (some centres unmarked) [Example 216],27 nM
13,Cn1c(Nc2c(Cl)ccc(CNC(=O)c3c[nH]cn3)c2Cl)nc2cc(C(=O)N[C@H]3CC[C@H](C(F)(F)F)CC3)c(N3CC4CC4C3)cc21 (some centres unmarked) [Example 220],119 nM
14,Cc1noc(N)c1C(=O)NCc1ccc(Cl)c(Nc2nc3cc(C(=O)N[C@H]4CC[C@H](C(F)(F)F)CC4)c(N4CC5CC5C4)cc3n2C)c1Cl (some centres unmarked) [Example 222],100 nM
15,Cc1nc(N)sc1C(=O)NCc1ccc(Cl)c(Nc2nc3cc(C(=O)N[C@H]4CC[C@H](C(F)(F)F)CC4)c(N4CC5CC5C4)cc3n2C)c1Cl (some centres unmarked) [Example 225],71 nM
16,Cn1c(Nc2c(Cl)ccc(CNC(=O)c3cnc(N)s3)c2Cl)nc2cc(C(=O)N[C@H]3CC[C@H](C(F)(F)F)CC3)c(N3CC4CC4C3)cc21 (some centres unmarked) [Example 226],98 nM
17,Cc1nc(C(=O)NCc2ccc(Cl)c(Nc3nc4cc(C(=O)N[C@H]5CC[C@H](C(F)(F)F)CC5)c(N5CC6CC6C5)cc4n3C)c2Cl)cs1 (some centres unmarked) [Example 228],> 100 nM
18,Cn1c(Nc2c(Cl)ccc(CNC(=O)c3csc(N)n3)c2Cl)nc2cc(C(=O)N[C@H]3CC[C@H](C(F)(F)F)CC3)c(N3CC4CC4C3)cc21 (some centres unmarked) [Example 229],4.6 nM
19,Cn1c(Nc2c(Cl)ccc(CNC(=O)c3cc[nH]n3)c2Cl)nc2cc(C(=O)N[C@H]3CC[C@H](C(F)(F)F)CC3)c(N3CC4CC4C3)cc21 (some centres unmarked) [Example 230],40 nM
20,CC(C)(C)C(=O)NCc1ccc(Cl)c(Nc2nc3cc(C(=O)Nc4ccc(OC(F)(F)F)cc4)c(N4CCOCC4)cc3n2CCC(N)=O)c1Cl [Example 268],6.5 nM
21,CC(C)(F)C(=O)NCc1ccc(Cl)c(Nc2nc3cc(C(=O)NCCC(F)(F)F)c(N4CCC(C(F)(F)F)CC4)cc3n2C(C)(C)CO)c1Cl [Example 269],55 nM

# The remaining lines, values ahead:
row,IC50,SMILES
1,> 100 nM,COc1cncc(C(=O)NCc2ccc(Cl)c(Nc3nc4cc(C(=O)N[C@H]5CC[C@H](C(F)(F)F)CC5)c(N5CC6CC6C5)cc4n3C)c2Cl)c1 (some centres unmarked) [Example 200]
2,6 nM,Cn1c(Nc2c(Cl)ccc(CNC(=O)c3c(F)cncc3F)c2Cl)nc2cc(C(=O)N[C@H]3CC[C@H](C(F)(F)F)CC3)c(N3CC4CC4C3)cc21 (some centres unmarked) [Example 201]
3,> 100 nM,Cn1c(Nc2c(Cl)ccc(CNC(=O)c3cncc(O)c3)c2Cl)nc2cc(C(=O)N[C@H]3CC[C@H](C(F)(F)F)CC3)c(N3CC4CC4C3)cc21 (some centres unmarked) [Example 205]
4,170 nM,Cn1c(Nc2c(Cl)ccc(CNC(=O)c3cc(CO)ccn3)c2Cl)nc2cc(C(=O)N[C@H]3CC[C@H](C(F)(F)F)CC3)c(N3CC4CC4C3)cc21 (some centres unmarked) [Example 207]
5,41 nM,COc1cncc(C(=O)NCc2ccc(Cl)c(Nc3nc4cc(C(=O)N[C@H]5CC[C@H](C(F)(F)F)CC5)c(N5CC6CC6C5)cc4n3C)c2Cl)n1 (some centres unmarked) [Example 213]
6,> 100 nM,Cn1cncc1C(=O)NCc1ccc(Cl)c(Nc2nc3cc(C(=O)N[C@H]4CC[C@H](C(F)(F)F)CC4)c(N4CC5CC5C4)cc3n2C)c1Cl (some centres unmarked) [Example 217]
7,98 nM,Cn1c(Nc2c(Cl)ccc(CNC(=O)c3cc(O)[nH]n3)c2Cl)nc2cc(C(=O)N[C@H]3CC[C@H](C(F)(F)F)CC3)c(N3CC4CC4C3)cc21 (some centres unmarked) [Example 218]
8,> 100 nM,Cc1cc(C(=O)NCc2ccc(Cl)c(Nc3nc4cc(C(=O)N[C@H]5CC[C@H](C(F)(F)F)CC5)c(N5CC6CC6C5)cc4n3C)c2Cl)nn1C (some centres unmarked) [Example 219]
9,53 nM,Cn1c(Nc2c(Cl)ccc(CNC(=O)c3cn[nH]c3)c2Cl)nc2cc(C(=O)N[C@H]3CC[C@H](C(F)(F)F)CC3)c(N3CC4CC4C3)cc21 (some centres unmarked) [Example 221]
10,12 nM,Cc1cc(C(=O)NCc2ccc(Cl)c(Nc3nc4cc(C(=O)N[C@H]5CC[C@H](C(F)(F)F)CC5)c(N5CC6CC6C5)cc4n3C)c2Cl)no1 (some centres unmarked) [Example 223]
11,67 nM,Cc1noc(C)c1C(=O)NCc1ccc(Cl)c(Nc2nc3cc(C(=O)N[C@H]4CC[C@H](C(F)(F)F)CC4)c(N4CC5CC5C4)cc3n2C)c1Cl (some centres unmarked) [Example 224]
12,43 nM,Cc1nc(C)c(C(=O)NCc2ccc(Cl)c(Nc3nc4cc(C(=O)N[C@H]5CC[C@H](C(F)(F)F)CC5)c(N5CC6CC6C5)cc4n3C)c2Cl)s1 (some centres unmarked) [Example 227]
13,23 nM,Cn1c(Nc2c(Cl)ccc(CNC(=O)OC(C)(C)C)c2Cl)nc2cc(C(=O)NCCC(F)(F)F)c(N3CC4CC4C3)cc21 (centres unmarked) [Example 266]
14,1.7 nM,Cn1c(Nc2c(Cl)ccc(CNC(=O)C(C)(C)C)c2Cl)nc2cc(C(=O)Nc3ccc(OC(F)(F)F)cc3)c(N3CCC(F)CC3)cc21 [Example 267]
